Reference: patent US20110076293A1, “TRIPTOLIDE DERIVATIVES FOR MODULATION OF APOPTOSIS AND IMMUNOSUPPRESSION” (priority 2002, published 2011)

Experiments:
[1] = test system: IL-2 production in Jurkat human T lymphocyte cells; assay: IL-2 production assay for activity of compounds incubated with human serum; settings: for bioactivity in IL-2 inhibition assays (in words): FIGS. 4-5; for IL-2 pg/mL at given concentration (nM): Table 8, Jurkat cells
Experimental: Several compounds of formula I were analyzed for their capacity to inhibit IL-2 production in Jurkat human T lymphocyte cells, after incubation with pooled human serum for 48 hours at 37° C. (see Example 20). An ester prodrug, triptolide-14-succinate, designated PG490-88, was included for comparison.
The IC50 values (column 1) are calculated directly from the data in each experiment. The % conversion values (column 2) are calculated as the percent of the IC50 value produced by triptolide, designated PG490, incubated in the same plasma (i.e. in the same experiment).
A. IL-2 production assay for activity of compounds incubated with human serum. Test samples were diluted to 1 mM in complete tissue culture medium. […] Cells from an exponentially expanding culture of the Jurkat human T lymphocyte cell line (#TIB-152 obtained from American Type Culture Collection, Manassas, Va.) were harvested, washed once by centrifugation and dilution in complete tissue culture medium, and diluted to a concentration of 2×10^6 cells/ml. A volume of 50 μl of Jurkat cells (1×10^5 cells) was added to wells containing 100 μl of the diluted compounds, 50 μl of PMA (10 ng/ml) was added to each well, and the plates were incubated at 37° C. in a 5% CO2 incubator. After 24 hours, the plates were centrifuged to pellet the cells, 150 μl of supernatant was removed from each well, and the samples were stored at −20° C. The stored supernatants were analyzed for human IL-2 concentration using the Luminex 100 (Luminex Corporation, Austin, Tex.), Luminex microspheres coupled with anti-IL-2 capture antibody, and fluorochrome-coupled anti-IL-2 detection antibody. The data were expressed as ng/ml of IL-2.
(§1) B. Comparison of bioactivities after incubation of compounds in human serum. The data were plotted as the concentration of compound incubated in serum versus IL-2 concentration. The concentration of compound inducing a 50% decrease in the IL-2 concentration (IC50) was calculated from these dose response curves. […] This percentage conversion was used to compare the bioactivity of various compounds after incubation in human serum.

[2] = test system: Jurkat human T lymphocyte cell line; assay: Apoptosis assay (Annexin V) of compounds incubated with human serum
Experimental: (§2) Compounds of formula I, as shown in Table 1 above and in the Examples, were assayed for their capacity to induce apoptosis in cells from the Jurkat human T lymphocyte cell line, after incubation with pooled human serum for varying periods of time at 37° C. (see Example 19). An ester prodrug, triptolide-14-succinate, designated PG490-88, was included for comparison. The extent of conversion to triptolide after such incubation was also independently determined by HPLC analysis.
The ED50 values (column 3) are calculated directly from the data in each experiment, and the % conversion values (column 4) are calculated as percent of the ED50 value produced by triptolide, designated PG490, incubated in the same plasma (i.e. in the same experiment).
A. Incubation of compounds with human serum. Pooled human serum was stored in aliquots at −80° C. Test compounds were added at 20 mM to thawed human serum in 1.5 ml microfuge tubes and incubated at 37° C. in a water bath for varying periods of time. The test samples were placed on ice until dilution for the bioassay. Controls consisted of the compounds incubated in complete tissue culture medium (RPMI 1640 medium plus 5% heat-inactivated fetal calf serum, 1% HEPES, 1% pen/strep, 1% glutamine) rather than human serum.
B. Apoptosis assay of compounds incubated with human serum. Test samples were diluted to 1 mM in complete tissue culture medium. Aliquots were placed in microculture plates and serial dilutions were prepared so that the final concentration would encompass the range of 1 to 10,000 nM with half-log increments. Cells from an exponentially expanding culture of the Jurkat human T lymphocyte cell line (#TIB-152 obtained from American Type Culture Collection, Manassas, Va.) were harvested, washed once by centrifugation and dilution in complete tissue culture medium, and diluted to a concentration of 1×10^6 cells/ml. A volume of 100 μl of Jurkat cells (1×10^5 cells) was added to wells containing 100 μl of the diluted compounds, and the plates were incubated at 37° C. in a 5% CO2 incubator. After 24 hours, the plates were centrifuged to pellet the cells, and the cells were washed twice with 2% heat-inactivated fetal calf serum in PBS. To each well, 500 ul of binding buffer was added according to the Annexin V assay procedure (BioVision, Inc., Mountain View, Calif.). Next, 5 μl of the fluorescein isothiocyanate (FITC) conjugate of Annexin V (BioVision, Inc.) was added to each well, followed by 5 minutes of incubation in the dark. In some assays, propidium iodide (BioVision, Inc.) was added at this stage to check for necrotic cells. The contents of the wells were individually transferred into test tubes, and apoptosis was analyzed using a FACSCalibur flow cytometer (BD Immunocytometry Systems, San Jose, Calif.). Cells positive for Annexin V binding were considered to be apoptotic, and the data were calculated as percent apoptotic cells.
as §1, with “C.” for “B.”, “percent apoptotic cells.” for “IL-2 concentration.”, “inducing” for “inducing a”, “apoptosis (ED50)” for “decrease in the IL-2 concentration (IC50)”

in vitro = settings: incomplete conversion to triptolide, 48 hr incubation
Experimental: as §2
Prodrug conversions to triptolide as determined independently by HPLC are given in […].

[3] = Table 4, serum, 48 hr, 10000 nM

SMILES: CC(C)[C@]12O[C@H]1[C@@H]1O[C@]13[C@]1(O[C@H]1C[C@H]1C4=C(CC[C@@]13C)C(=O)OC4)[C@@H]2OC(=O)CCC(N)C(=O)O (stereo partly shown) [PG661, 14-isoglutamyl ester, reference compound]
- bioactivity in IL-2 inhibition assays (in words) [1]: little or no activity
- IL-2 pg/mL at given concentration (nM) ([1]; 0.0001 nM): 82.0 pg/mL
- IL-2 pg/mL at given concentration (nM) ([1]; 0.001 nM): 102.1 pg/mL
- IL-2 pg/mL at given concentration (nM) ([1]; 0.01 nM): 123.6 pg/mL
- IL-2 pg/mL at given concentration (nM) ([1]; 0.1 nM): 120.7 pg/mL
- IL-2 pg/mL at given concentration (nM) ([1]; 1 nM): 98.2 pg/mL
- IL-2 pg/mL at given concentration (nM) ([1]; 10 nM): 110.3 pg/mL
- IL-2 pg/mL at given concentration (nM) ([1]; 100 nM): 103.6 pg/mL
- IL-2 pg/mL at given concentration (nM) ([1]; 1000 nM): 74.4 pg/mL
- IL-2 pg/mL at given concentration (nM) ([1]; 10000 nM): 68.7 pg/mL
- % apoptotic cells at given concentration (nM) ([2]; Table 3, human serum, 0 hr, 10000 nM): 7.9%
- % apoptotic cells at given concentration (nM) ([2]; Table 3, human serum, 48 hr, 1 nM): 11.3%
- % apoptotic cells at given concentration (nM) ([2]; Table 3, human serum, 48 hr, 3 nM): 10.4%
- % apoptotic cells at given concentration (nM) ([2]; Table 3, human serum, 48 hr, 10 nM): 10.3%
- % apoptotic cells at given concentration (nM) ([2]; Table 3, human serum, 48 hr, 30 nM): 10.5%
- % apoptotic cells at given concentration (nM) ([2]; Table 3, human serum, 48 hr, 100 nM): 10.3%
- % apoptotic cells at given concentration (nM) ([2]; Table 3, human serum, 48 hr, 300 nM): 10.5%
- % apoptotic cells at given concentration (nM) ([2]; Table 3, human serum, 48 hr, 1000 nM): 10.2%
- % apoptotic cells at given concentration (nM) ([2]; Table 3, human serum, 48 hr, 3000 nM): 9.7%
- % apoptotic cells at given concentration (nM) ([2]; Table 3, human serum, 48 hr, 10000 nM): 9.4%
- % apoptotic cells at given concentration (nM) ([2]; Table 3, medium only, 10000 nM): 13.6%
- % apoptotic cells at given concentration (nM) ([2]; Table 4, medium, 10000 nM): 7.3%
- % apoptotic cells at given concentration (nM) ([2]; Table 4, serum, 0 hr, 10000 nM): 5.2%
- % apoptotic cells at given concentration (nM) ([2]; Table 4, serum, 48 hr, 0.03 nM): 38.8%
- % apoptotic cells at given concentration (nM) ([2]; Table 4, serum, 48 hr, 0.1 nM): 38.2%
- % apoptotic cells at given concentration (nM) ([2]; Table 4, serum, 48 hr, 0.3 nM): 39.0%
- % apoptotic cells at given concentration (nM) ([2]; Table 4, serum, 48 hr, 1 nM): 39.2%
- % apoptotic cells at given concentration (nM) ([2]; Table 4, serum, 48 hr, 3 nM): 39.1%
- % apoptotic cells at given concentration (nM) ([2]; Table 4, serum, 48 hr, 10 nM): 39.2%
- % apoptotic cells at given concentration (nM) ([2]; Table 4, serum, 48 hr, 30 nM): 40.3%
- % apoptotic cells at given concentration (nM) ([2]; Table 4, serum, 48 hr, 100 nM): 38.6%
- % apoptotic cells at given concentration (nM) ([2]; Table 4, serum, 48 hr, 300 nM): 36.3%
- % apoptotic cells at given concentration (nM) ([2]; Table 4, serum, 48 hr, 1000 nM): 28.7%
- % apoptotic cells at given concentration (nM) ([2]; Table 4, serum, 48 hr, 3000 nM): 28.2%
- % apoptotic cells at given concentration (nM) [2, 3]: 5.2%
- apoptotic activity (in words) ([2]; after 48 hr. incubation in human serum): essentially no activity

SMILES: CC(C)[C@]12O[C@H]1[C@@H]1O[C@]13[C@]1(O[C@H]1C[C@H]1C4=C(CC[C@@]13C)C(=O)OC4)[C@@H]2OC(=O)OCC(=O)[O-].[Na+] [PG687Na, Sodium Salt of Triptolide 14-Hydroxycarbonylmethyl Carbonate]
- IC50 ([1]; IL-2 production in Jurkat cells after incubation with pooled human serum for 48 hours at 37° C.): 0.092 µM
- Conversion (%) ([1]; percent of the IC50 value produced by triptolide (PG490) in the same experiment, human serum 48 hours): 1%
- max. conversion at 48 hr in human plasma by HPLC (in vitro): 10%

SMILES: CC(C)[C@]12O[C@H]1[C@@H]1O[C@]13[C@]1(O[C@H]1C[C@H]1C4=C(CC[C@@]13C)C(=O)OC4)[C@@H]2OC(=O)Nc1ccccc1 [PG671, Triptolide 14-Phenyl Carbamate]
- bioactivity in IL-2 inhibition assays (in words) [1]: some level of bioactivity
- IL-2 pg/mL at given concentration (nM) ([1]; 0.0001 nM): 96.4 pg/mL
- IL-2 pg/mL at given concentration (nM) ([1]; 0.001 nM): 102.7 pg/mL
- IL-2 pg/mL at given concentration (nM) ([1]; 0.01 nM): 99.7 pg/mL
- IL-2 pg/mL at given concentration (nM) ([1]; 0.1 nM): 114.7 pg/mL
- IL-2 pg/mL at given concentration (nM) ([1]; 1 nM): 106.1 pg/mL
- IL-2 pg/mL at given concentration (nM) ([1]; 10 nM): 90.7 pg/mL
- IL-2 pg/mL at given concentration (nM) ([1]; 100 nM): 77.9 pg/mL
- IL-2 pg/mL at given concentration (nM) ([1]; 1000 nM): 48.7 pg/mL
- IL-2 pg/mL at given concentration (nM) ([1]; 10000 nM): 8.8 pg/mL
- conversion in human serum (in words) [2]: less readily converted
- % apoptotic cells at given concentration (nM) ([2]; Table 4, medium, 10000 nM): 13.7%
- % apoptotic cells at given concentration (nM) ([2]; Table 4, serum, 0 hr, 10000 nM): 10.2%
- % apoptotic cells at given concentration (nM) ([2]; Table 4, serum, 48 hr, 0.03 nM): 42.5%
- % apoptotic cells at given concentration (nM) ([2]; Table 4, serum, 48 hr, 0.1 nM): 43.3%
- % apoptotic cells at given concentration (nM) ([2]; Table 4, serum, 48 hr, 0.3 nM): 43.9%
- % apoptotic cells at given concentration (nM) ([2]; Table 4, serum, 48 hr, 1 nM): 44.2%
- % apoptotic cells at given concentration (nM) ([2]; Table 4, serum, 48 hr, 3 nM): 43.2%
- % apoptotic cells at given concentration (nM) ([2]; Table 4, serum, 48 hr, 10 nM): 42.4%
- % apoptotic cells at given concentration (nM) ([2]; Table 4, serum, 48 hr, 30 nM): 44.7%
- % apoptotic cells at given concentration (nM) ([2]; Table 4, serum, 48 hr, 100 nM): 43.5%
- % apoptotic cells at given concentration (nM) ([2]; Table 4, serum, 48 hr, 300 nM): 43.1%
- % apoptotic cells at given concentration (nM) ([2]; Table 4, serum, 48 hr, 1000 nM): 43.0%
- % apoptotic cells at given concentration (nM) ([2]; Table 4, serum, 48 hr, 3000 nM): 43.3%
- % apoptotic cells at given concentration (nM) [2, 3]: 15.4%
